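Cells were grown in 96-well plates and exposed to each compound for 48 hours at five concentrations; endpoints were interpolated linearly between bracketing concentrations, or set to the highest concentration if not reached. GI50 marks 50% less growth.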 Calls of active or inactive are those of the source. Rule as the data show it: active = GI50 up to about 1.1 µM and inactive = higher.
Legend:
Experiment in all cases: inhibition of tumour cell growth, NCI panel, 48 h
786-0 = test system: 786-0
UACC-257 = test system: UACC-257
NCI-H23 = test system: NCI-H23
OVCAR-5 = test system: OVCAR-5
RXF 393 = test system: RXF 393
COLO 205 = test system: COLO 205
IGROV-1 = test system: IGROV-1
HCT-116 = test system: HCT-116
T47D = test system: T47D
CCRF-CEM = test system: CCRF-CEM
CAKI-1 = test system: CAKI-1
SK-OV-3 = test system: SK-OV-3
HOP-62 = test system: HOP-62
OVCAR-4 = test system: OVCAR-4
TK-10 = test system: TK-10
ACHN = test system: ACHN
MDA-N = test system: MDA-N
MDA-MB-231 = test system: MDA-MB-231
MDA-MB-435 = test system: MDA-MB-435
BT-549 = test system: BT-549
KM12 = test system: KM12
OVCAR-8 = test system: OVCAR-8
PC-3 = test system: PC-3
HT-29 = test system: HT-29
U-251 = test system: U-251
NCI/ADR-RES = test system: NCI/ADR-RES
SF-295 = test system: SF-295
DU-145 = test system: DU-145
UACC-62 = test system: UACC-62
SN12C = test system: SN12C
SF-268 = test system: SF-268
SK-MEL-2 = test system: SK-MEL-2
A549 = test system: A549
SF-539 = test system: SF-539
SW-620 = test system: SW-620
LOX IMVI = test system: LOX IMVI
NCI-H522 = test system: NCI-H522
Hs-578T = test system: Hs-578T
MOLT-4 = test system: MOLT-4
SK-MEL-5 = test system: SK-MEL-5
HCT-15 = test system: HCT-15
UO-31 = test system: UO-31
MCF7 = test system: MCF7
SK-MEL-28 = test system: SK-MEL-28
A498 = test system: A498
M14 = test system: M14
Malme-3M = test system: Malme-3M
NCI-H226 = test system: NCI-H226
SNB-19 = test system: SNB-19
EKVX = test system: EKVX
HL-60 = test system: HL-60
SNB-75 = test system: SNB-75
K562 = test system: K562
HCC 2998 = test system: HCC 2998
NCI-H460 = test system: NCI-H460
RPMI-8226 = test system: RPMI-8226
OVCAR-3 = test system: OVCAR-3
HOP-92 = test system: HOP-92

Measured: GI50

CNc1ccc(N)cc1C(=O)N1CCC[C@H]1CO
inactive: 786-0 > 100 µM | UACC-257 > 100 µM | NCI-H23 > 100 µM | OVCAR-5 > 100 µM | RXF 393 > 100 µM | COLO 205 > 100 µM | IGROV-1 > 100 µM | HCT-116 > 100 µM | T47D > 100 µM | CCRF-CEM > 100 µM | CAKI-1 > 100 µM | SK-OV-3 > 100 µM | HOP-62 > 100 µM | OVCAR-4 > 100 µM | TK-10 > 100 µM | ACHN > 100 µM | MDA-N > 100 µM | MDA-MB-231 > 100 µM | MDA-MB-435 > 100 µM | BT-549 > 100 µM | KM12 > 100 µM | OVCAR-8 > 100 µM | PC-3 > 100 µM | HT-29 > 100 µM | U-251 > 100 µM | NCI/ADR-RES > 100 µM | SF-295 > 100 µM | DU-145 > 100 µM | UACC-62 > 100 µM | SN12C > 100 µM | SF-268 > 100 µM | SK-MEL-2 > 100 µM | A549 > 100 µM | SF-539 > 100 µM | SW-620 > 100 µM | LOX IMVI > 100 µM | NCI-H522 > 100 µM | Hs-578T > 100 µM | MOLT-4 > 100 µM | SK-MEL-5 > 100 µM | UO-31 > 100 µM | MCF7 > 100 µM | SK-MEL-28 > 100 µM | A498 > 100 µM | M14 > 100 µM | Malme-3M > 100 µM | NCI-H226 > 100 µM | SNB-19 > 100 µM | EKVX > 100 µM | HL-60 > 100 µM | SNB-75 > 100 µM
> 100 µM: HCT-15

CCOC(=O)c1c(-c2ccccc2)c(OC)cn1C
> 10 µM: HCT-15
inactive: 786-0 > 10 µM | UACC-257 > 10 µM | NCI-H23 > 10 µM | OVCAR-5 > 10 µM | RXF 393 > 10 µM | COLO 205 > 10 µM | IGROV-1 > 10 µM | HCT-116 > 10 µM | T47D > 10 µM | CCRF-CEM > 10 µM | CAKI-1 > 10 µM | SK-OV-3 > 10 µM | HOP-62 > 10 µM | OVCAR-4 > 10 µM | TK-10 > 10 µM | ACHN > 10 µM | K562 > 10 µM | HCC 2998 > 10 µM | MDA-N > 10 µM | MDA-MB-231 > 10 µM | MDA-MB-435 > 10 µM | BT-549 > 10 µM | KM12 > 10 µM | OVCAR-8 > 10 µM | PC-3 > 10 µM | HT-29 > 10 µM | U-251 > 10 µM | NCI/ADR-RES > 10 µM | SF-295 > 10 µM | DU-145 > 10 µM | UACC-62 > 10 µM | SN12C > 10 µM | SF-268 > 10 µM | SK-MEL-2 > 10 µM | NCI-H460 > 10 µM | A549 > 10 µM | SF-539 > 10 µM | SW-620 > 10 µM | LOX IMVI > 10 µM | RPMI-8226 > 10 µM | NCI-H522 > 10 µM | Hs-578T > 10 µM | MOLT-4 > 10 µM | SK-MEL-5 > 10 µM | MCF7 > 10 µM | SK-MEL-28 > 10 µM | A498 > 10 µM | OVCAR-3 > 10 µM | M14 > 10 µM | Malme-3M > 10 µM | NCI-H226 > 10 µM | SNB-19 > 10 µM | EKVX > 10 µM | HL-60 > 10 µM | SNB-75 > 10 µM

COC(=O)[C@H](Cc1c[nH]c2ccccc12)NC(=O)OCC1OC(n2cc(C)c(=O)[nH]c2=O)CC1N=[N+]=[N-] (stereo partly drawn)
inactive: 786-0 > 100 µM | UACC-257 62.5 µM | NCI-H23 76 µM | OVCAR-5 > 100 µM | RXF 393 > 100 µM | COLO 205 > 100 µM | HOP-92 > 100 µM | IGROV-1 > 100 µM | HCT-116 > 100 µM | T47D > 100 µM | CCRF-CEM 93.3 µM | CAKI-1 > 100 µM | SK-OV-3 > 100 µM | HOP-62 > 100 µM | OVCAR-4 > 100 µM | TK-10 > 100 µM | ACHN > 100 µM | K562 > 100 µM | HCC 2998 > 100 µM | MDA-N > 100 µM | MDA-MB-231 > 100 µM | MDA-MB-435 > 100 µM | BT-549 > 100 µM | KM12 > 100 µM | OVCAR-8 > 100 µM | PC-3 > 100 µM | HT-29 > 100 µM | U-251 > 100 µM | NCI/ADR-RES > 100 µM | SF-295 > 100 µM | DU-145 > 100 µM | UACC-62 61.5 µM | SN12C > 100 µM | SF-268 > 100 µM | SK-MEL-2 > 100 µM | NCI-H460 49.4 µM | A549 > 100 µM | SW-620 > 100 µM | LOX IMVI 98.6 µM | RPMI-8226 > 100 µM | NCI-H522 > 100 µM | Hs-578T 46.3 µM | MOLT-4 33.6 µM | SK-MEL-5 31.8 µM | UO-31 > 100 µM | MCF7 > 100 µM | OVCAR-3 > 100 µM | M14 > 100 µM | Malme-3M > 100 µM | NCI-H226 > 100 µM | SNB-19 > 100 µM | EKVX > 100 µM | HL-60 > 100 µM | SNB-75 84.5 µM
> 100 µM: HCT-15

From ChEMBL document CHEMBL1201862, “PubChem BioAssay data set” (2004)
